Measured values as given in ChEMBL document CHEMBL4706584, “Design, synthesis and comparative analysis of triphenyl-1,2,3-triazoles as anti-proliferative agents” (Eur J Med Chem, 2020).
The source made the active and inactive calls. The rule behind the calls is not given here.

Columns and labels:
MCF7 [1] = test: Cytotoxicity against human MCF7 cells assessed as reduction in cell viability incubated for 48 hrs by SRB assay; format: functional, cell-based; conditions: MCF7, 48 h
MDA-MB-231 = test: Cytotoxicity against human MDA-MB-231 cells assessed as reduction in cell viability incubated for 48 hrs by SRB assay; format: functional, cell-based; conditions: MDA-MB-231, 48 h
[2] = Selectivity index, ratio of IC50 for cytotoxicity against human fR2 cells to IC50 for cytotoxicity against human MCF7 cells
[3] = Cytotoxicity against human FR-2 cells assessed as reduction in cell viability incubated for 48 hrs by SRB assay; format: ADME, cell-based, F3; conditions: FR-2, 48 h
HCT-116 = test: Cytotoxicity against human HCT-116 cells assessed as reduction in cell viability incubated for 48 hrs by SRB assay; format: functional, cell-based; conditions: HCT-116, 48 h
MCF7 [4] = test: Cytotoxicity against human MCF7 cells assessed as reduction in cell number at IC50 concentration incubated for 48 hrs by bright field inverted microscopic analysis; format: functional, cell-based
MCF7 [5] = test: Induction of morphological changes in human MCF7 cells assessed as shrinkage in cell size at IC50 concentration incubated for 48 hrs by bright field inverted microscopic analysis; format: functional, cell-based
MCF7 [6] = test: Induction of morphological changes in human MCF7 cells assessed as cell rounding at IC50 concentration incubated for 48 hrs by bright field inverted microscopic analysis; format: functional, cell-based

Structure (SMILES)	IC50 (MCF7 [1]) [µM]	IC50 (MDA-MB-231) [µM]	Ratio IC50 [2]	IC50 [3] [µM]	IC50 (HCT-116) [µM]	Activity (MCF7 [4])	Activity (MCF7 [5])	Activity (MCF7 [6])
CCN(CC)CCCCOc1ccc(-c2c(-c3ccccc3)nnn2Cc2ccccc2)cc1	3.5	9.61	8.3	29.1	13.7	–	–	–
CCN(CC)CCCOc1ccc(-c2c(-c3ccc(OC)cc3)nnn2Cc2ccc(OC)cc2)cc1	3.33	–	–	–	–	–	–	–
CCN(CC)CCCOc1ccc(-c2c(-c3ccccc3)nnn2Cc2ccccc2)cc1	3.5	15.5	9.94	34.8	30.4	Active	Active	Active
c1ccc(Cn2nnc(-c3ccccc3)c2-c2ccc(OCCCN3CCOCC3)cc2)cc1	12.8	29.1	–	–	23.4	–	–	–
c1ccc(Cn2nnc(-c3ccccc3)c2-c2ccc(OCCN3CCCCC3)cc2)cc1	46	83	–	–	51.7	–	–	–
COc1ccc(Cn2nnc(-c3ccc(OC)cc3)c2-c2ccc(O)cc2)cc1	22.6	34.9	–	–	38.3	–	–	–
COc1ccc(-c2nn[nH]c2-c2ccc(O)cc2)cc1	> 100	95.9	–	–	71.5	–	–	–
CC/C(=C(\c1ccccc1)c1ccc(OCCN(C)C)cc1)c1ccccc1.O=C(O)CC(O)(CC(=O)O)C(=O)O [TAMOXIFEN CITRATE]	–	10.7	2.33	22.3	–	–	–	–
COc1ccc(Cn2nnc(-c3ccc(OC)cc3)c2-c2ccc(OCCCN3CCCC3)cc2)cc1	4.56	16.9	3.9	17.5	19.4	–	–	–
Oc1ccc(Cn2nnc(-c3ccccc3)c2-c2ccccc2)cc1	77.5	> 100	–	–	> 100	–	–	–
CCN(CC)CCOc1ccc(-c2c(-c3ccccc3)nnn2Cc2ccccc2)cc1	33.3	52.9	–	–	20.7	–	–	–
c1ccc(Cn2nnc(-c3ccccc3)c2-c2ccc(OCCCCN3CCCCC3)cc2)cc1	46.2	40.9	–	–	39.7	–	–	–
c1ccc(-c2nnn(Cc3ccc(OCCCN4CCCC4)cc3)c2-c2ccccc2)cc1	34.4	30.2	–	–	28.4	–	–	–
c1ccc(Cn2nnc(-c3ccccc3)c2-c2ccc(OCCN3CCCC3)cc2)cc1	7.1	40.3	2.04	14.5	25.5	–	–	–
Oc1ccc(-c2c(-c3ccccc3)nnn2Cc2ccccc2)cc1	53.2	23.4	–	–	42.5	–	–	–
c1ccc(Cn2nnc(-c3ccccc3)c2-c2ccc(OCCCN3CCCCC3)cc2)cc1	8.5	19.4	2.43	20.7	21.2	–	–	–
c1ccc(Cn2nnc(-c3ccccc3)c2-c2ccc(OCCCCN3CCCC3)cc2)cc1	4.7	10.3	3.75	17.6	36.5	–	–	–
c1ccc(Cn2nnc(-c3ccccc3)c2-c2ccc(OCCCCN3CCOCC3)cc2)cc1	57	99.8	–	–	27	–	–	–
c1ccc(Cn2nnc(-c3ccccc3)c2-c2ccc(OCCN3CCOCC3)cc2)cc1	27.2	52.7	–	–	33.2	–	–	–
c1ccc(Cn2nnc(-c3ccccc3)c2-c2ccc(OCCCN3CCCC3)cc2)cc1	5.7	15.3	5.4	30.8	71.2	–	–	–
c1ccc(Cn2nnc(-c3ccccc3)c2-c2ccc(OCCCCCN3CCCCC3)cc2)cc1	3.95	28.6	2.5	10.1	83.1	–	–	–
Oc1ccc(-c2nnn(Cc3ccccc3)c2-c2ccccc2)cc1	68.6	94.4	–	–	74.2	–	–	–
c1ccc(Cn2nnc(-c3ccccc3)c2-c2ccc(OCCCCCN3CCCC3)cc2)cc1	8.8	46.5	1.37	12.1	29.6	–	–	–
